From patent US20130123222A1, “Synergistic Anti-Cancer Activity of SR16388 with Anti-Mitotic Drugs” (SRI INTERNATIONAL, INC., priority 2011, published 2013)
Numbered stars: 1 amine (or outer) side, 2 acyl side, 3 side chain; on linkers, the order of the positions; unused ones are H or OH. Bridge positions count the residues as written; N and C are the ends. Square brackets hold non-standard residues; d marks the D form. Peptide text beside a SMILES is read from it. I, II: the chains in the order shown. Actinocin(9to1) = Cc1c2oc3c(C)ccc(C(=O)[*:1])c3nc-2c(C(=O)[*:2])c(N)c1=O; NMeV = CN[C@H](C(=O)O)C(C)C; Sar = CNCC(=O)O

Key:
[1] = tested on: panel of 48 to 60 cell lines; test: 5×4 combination screen with SR16388; synergism hit rate by algorithm (Z score); format: cell-based; settings: in combination with SR16388, all 20 (5×4) dose combinations
Method: (§1) SR16388 was synthesized in house.
5) A “combination score” was assigned to each specific combination (Ca1b1x): C=1 if Za1b1x>3*SD and C=0 if Za1b1x≦3*SD score);
6) Hit rate of each combination was calculated by comparing the sum of the combination scores of all 20 (5×4) dose combinations with all cell lines to the total number of data points of that specific combination;
7) Hit rate were ranked from high to low to identify potential synergistic combinations.

[2] = tested on: panel of 48 to 60 cell lines; test: 5×4 combination screen with SR16388, CellTiter-Glo viability; synergy by pattern recognition; settings: in combination with SR16388, 5x4-T1; for no effect (number of cell lines) / synergy (number of cell lines): pattern recognition, of 60 cell lines incl. no data; for % synergy: share of cell lines with data
Method: Cells were treated with compounds alone or in combination for three days and CellTiter-Glo® Luminescent Cell Viability Assay (Promega Corp.) was used as the endpoint to measure cell viability.
Cells were cultured in DMEM with 10% fetal bovine serum and used between passage 2 and passage 20. Cells were harvested on Day-1 (FIG. 1A) and re-supspended to the corresponding seeding density and seeded with Wellmate (ThermoFisher) to 384 plates (BD or GBO).
40 mM Compound stocks in 100% DMSO were made. Master plates were made with Janus (PerkinElmer), then further diluted and added to the cell plates with Matrix Platemate (Thermo) on Day 0.
CellTiter-Glo® Luminescent Cell Viability Assay (Promega Corp.) was used to measure ATP as an indicator of viable cells on Day 3 using Envision (PerkinElmer) and back up reader Analyst HT (MDS) and Gen5 (BioTek).
Single point, 5×4 checkque board platemap was used in the initial screening.
Relative Luminescent Units (RLU) were plotted against corresponding drug concentrations and fitted with standard four parameter sigmoidal curve with custom coded R program or Calcusyn (Biosoft, Cambridge, UK).

cancer cell lines = test: Combination cell viability assay, general observations on ratios and confirmed synergy; format: cell-based; settings: in combination with SR16388
Method: Cells were treated with compounds alone or in combination for three days and CellTiter-Glo® Luminescent Cell Viability Assay (Promega Corp.) was used as the endpoint to measure cell viability. […] Cells were harvested on Day-1 (FIG. 1A) and re-supspended to the corresponding seeding density and seeded with Wellmate (ThermoFisher) to 384 plates (BD or GBO). […] Master plates were made with Janus (PerkinElmer), then further diluted and added to the cell plates with Matrix Platemate (Thermo) on Day 0. CellTiter-Glo® Luminescent Cell Viability Assay (Promega Corp.) was used to measure ATP as an indicator of viable cells on Day 3 using Envision (PerkinElmer) and back up reader Analyst HT (MDS) and Gen5 (BioTek). Relative Luminescent Units (RLU) were plotted against corresponding drug concentrations and fitted with standard four parameter sigmoidal curve with custom coded R program or Calcusyn (Biosoft, Cambridge, UK).

[3] = Prior in vivo xenograft study and other safety data
[4] = tested on: various cancer cell lines; test: 11×7 synergism hit rate over all cell lines (by algorism); format: cell-based; settings: when tested with SR16388
Text: as §1
Within the same type of cancer cells, some cell lines have more synergistic hits than others. Melanoma and breast cancer cell lines had the highest hit rate.

SMILES | % hit/combo [1] [%] | no effect (number of cell lines) [2] | synergy (number of cell lines) [2] | % synergy [2] [%] | interaction with SR16388 (confirmed) (cancer cell lines) | overlapping toxicities with microtubulin inhibitors [3] | tolerability [3] | hit rate [4] [%]
CO[C@H]1C[C@@H]2CC[C@@H](C)[C@@](O)(O2)C(=O)C(=O)N2CCCC[C@H]2C(=O)O[C@H]([C@H](C)C[C@@H]2CC[C@@H](O)[C@H](OC)C2)CC(=O)[C@H](C)/C=C(\C)[C@@H](O)[C@@H](OC)C(=O)[C@H](C)C[C@H](C)/C=C/C=C/C=C/1C [Rapamycin] | 0.83 | 54 | – | – | – | – | – | –
Cc1nc(Nc2ncc(C(=O)Nc3c(C)cccc3Cl)s2)cc(N2CCN(CCO)CC2)n1 [Dasatinib] | 1.08 | 50 | 8 | 14 | – | – | – | –
COc1nc(N)nc2c1ncn2[C@@H]1O[C@H](CO)[C@@H](O)[C@@H]1O [Nelarabine] | 0.33 | 58 | 0 | 0 | – | – | – | –
CCC1=C[C@@H]2CN(C1)Cc1c([nH]c3ccccc13)[C@@](C(=O)OC)(c1cc3c(cc1OC)N(C)[C@H]1[C@@](O)(C(=O)OC)[C@H](OC(C)=O)[C@]4(CC)C=CCN5CC[C@]31[C@@H]54)C2 [Vinorelbine] | – | – | – | – | synergistic anti-proliferation effect | – | – | –
CCN(CC)CCNC(=O)c1c(C)[nH]c(/C=C2\C(=O)Nc3ccc(F)cc32)c1C [Sunitinib] | 1.25 | 56 | – | – | – | – | – | –
C[C@@H]1Cc2cc(O)ccc2[C@H]2CC[C@]3(C)/C(=C/COCCN(C)C)CC[C@H]3[C@H]12 [SR16388] | – | – | – | – | – | does not have ovelapping toxicities | well tolerated | –
CS(=O)(=O)CCNCc1ccc(-c2ccc3ncnc(Nc4ccc(OCc5cccc(F)c5)c(Cl)c4)c3c2)o1 [Lapatinib] | 0.67 | 55 | 3 | 5 | – | – | – | –
N#Cc1ccc(C(c2ccc(C#N)cc2)n2cncn2)cc1 [Letrozole] | 0.42 | 42 | 0 | 0 | – | – | – | –
Cc1cn(-c2cc(NC(=O)c3ccc(C)c(Nc4nccc(-c5cccnc5)n4)c3)cc(C(F)(F)F)c2)cn1 [Nilotinib] | 0.33 | 42 | 0 | 0 | – | – | – | –
S=P(N1CC1)(N1CC1)N1CC1 [Thiotepa] | 0.83 | 42 | – | – | – | – | – | –
Cc1ccc(NC(=O)c2ccc(CN3CCN(C)CC3)cc2)cc1Nc1nccc(-c2cccnc2)n1 [Imatinib] | 0.92 | 41 | 1 | 2 | – | – | – | –
CO[C@H]1C[C@@H]2CC[C@@H](C)[C@@](O)(O2)C(=O)C(=O)N2CCCC[C@H]2C(=O)O[C@H]([C@H](C)C[C@@H]2CC[C@@H](OCCO)[C@H](OC)C2)CC(=O)[C@H](C)/C=C(\C)[C@@H](O)[C@@H](OC)C(=O)[C@H](C)C[C@H](C)/C=C/C=C/C=C/1C [Everolimus] | 0.42 | 58 | 0 | 0 | – | – | – | –
Cn1nnc2c(C(N)=O)ncn2c1=O [Temozolomide] | 0.75 | 42 | – | – | – | – | – | –
Cc1c2oc3c(C)ccc(C(=O)N[C@@H]4C(=O)N[C@H](C(C)C)C(=O)N5CCC[C@H]5C(=O)N(C)CC(=O)N(C)[C@@H](C(C)C)C(=O)O[C@@H]4C)c3nc-2c(C(=O)N[C@@H]2C(=O)N[C@H](C(C)C)C(=O)N3CCC[C@H]3C(=O)N(C)CC(=O)N(C)[C@@H](C(C)C)C(=O)O[C@@H]2C)c(N)c1=O [Actinomycin] (I: T[dV]P[Sar][NMeV] / II: T[dV]P[Sar][NMeV]; ester I:1-I:C, II:1-II:C; linker I:N-II:N via Actinocin(9to1)) | 1.67 | 39 | – | – | – | – | – | 1.89
C/C=C1\NC(=O)[C@H]2CSSCC/C=C/[C@H](CC(=O)N[C@H](C(C)C)C(=O)N2)OC(=O)[C@H](C(C)C)NC1=O [Romidepsin] | 0.75 | 52 | 6 | 10 | – | – | – | –
CC/C(=C(\c1ccccc1)c1ccc(OCCN(C)C)cc1)c1ccccc1 [Tamoxifen] | 0.83 | 39 | 3 | 7 | – | – | – | –
Nc1ccn([C@@H]2O[C@H](CO)[C@@H](O)[C@@H]2O)c(=O)n1 [Cytarabine] | 0.33 | 42 | 0 | 0 | – | – | – | –
Nc1nc(Cl)nc2c1ncn2[C@@H]1O[C@H](CO)[C@@H](O)[C@@H]1F [Clofarabine] | 0.50 | 58 | – | – | – | – | – | –
CCc1c2c(nc3ccc(O)cc13)-c1cc3c(c(=O)n1C2)COC(=O)[C@]3(O)CC [SN38] | 0.58 | 45 | 13 | 22 | – | – | – | –
CC1=C(/C=C/C(C)=C/C=C/C(C)=C/C(=O)O)C(C)(C)CCC1 [Tretinoin] | 0.58 | 42 | 0 | 0 | – | – | – | –
N.N.O=C([O-])C1(C(=O)[O-])CCC1.[Pt+2] [Carboplatin] | 0.83 | 41 | 1 | 2 | – | – | – | –
O=c1[nH]c(=O)n([C@H]2C[C@H](O)[C@@H](CO)O2)cc1F [Floxuridine] | 0.67 | 42 | 0 | 0 | – | – | – | –
O=C(CCCCCCC(=O)Nc1ccccc1)NO [Vorinostat] | 0.83 | 58 | 0 | 0 | – | – | – | –
Nc1nc(F)nc2c1ncn2[C@@H]1O[C@H](CO)[C@@H](O)[C@@H]1O [FluroaraA] | 0.67 | 42 | 0 | 0 | – | – | – | –
Nc1nc(Cl)nc2c1ncn2[C@H]1C[C@H](O)[C@@H](CO)O1 [Cladribine] | 0.67 | 42 | 0 | 0 | – | – | – | –
Nc1ccn([C@@H]2O[C@H](CO)[C@@H](O)C2(F)F)c(=O)n1 [Gemcitabine] | 0.83 | 58 | 0 | 0 | – | – | – | –
CCCCCOC(=O)Nc1nc(=O)n([C@@H]2O[C@H](C)[C@@H](O)[C@H]2O)cc1F [Capecitabine] | 1.08 | 58 | 0 | 0 | – | – | – | –
Cc1ccc(-c2cc(C(F)(F)F)nn2-c2ccc(S(N)(=O)=O)cc2)cc1 [Celecoxib] | 0.67 | 42 | 0 | 0 | – | – | – | –
